Ki and IC50 data for 21 compounds are collected here from patent publication US20040097594A1 (priority 1998, published 2004).

One assay addresses HIV-1 protease (Human immunodeficiency virus type 1 group M subtype B, UniProt P04585). The assay is described as follows: biochemical.
Another assay concerns HIV-1 (strain IIIB). The experiment in a line: microbe, parasite or virus in culture. Type of assay: cell-based. The note with it: lower line of each compound's entry, read-out: IC50 (MT-4 cells).
Setting [1] is: Human immunodeficiency virus 1, 120 h, MT4 cells infected with HIV-1 strain IIIB, 5 days.
Where [2] appears, read: HIV-1 protease, upper line of each compound's entry, read-out: Ki (enzyme).
Setting [3] is: Human immunodeficiency virus 1, IIIB, MT4, 120 h, […].

Structures are written as SMILES. Where two headings read alike, the source gives them in different places.

In the case of `COc1ccc(S(=O)(=O)N(C[C@@H](O)[C@H](Cc2ccccc2)NC(=O)OC2CO[C@H]3OCC[C@@H]23)OCC(C)C)cc1` (stereo partly drawn) [Compound 145, (3R,3aS,6aR)hexahydrofuro[2,3-b]furan-3-yl N-((1S,2R)-1-benzyl-2-hydroxy-3-isobutoxy[(4-methoxyphenyl)sulfonyl]aminopropyl)carbamate], the Ki on HIV-1 protease is < 1 nM. Also, in the assay with HIV-1 (strain IIIB) (setting [1]), the IC50 is ≤ 100 nM.

`Nc1ccc(S(=O)(=O)N(C[C@@H](O)[C@H](Cc2ccccc2)NC(=O)O[C@H]2CO[C@H]3OCC[C@H]32)OC2CCOCC2)cc1` [Compound 146, (3R,3aS,6aR)hexahydrofuro[2,3-b]furan-3-yl 3-[[(4-aminophenyl)sulfonyl](tetrahydro-2H-pyran-4-yloxy)amino]-1-benzyl-2-hydroxypropylcarbamate]: the Ki on HIV-1 protease (setting [2]) was < 1 nM. For the same compound, the IC50 in the assay with HIV-1 (strain IIIB) (setting [1]) was ≤ 100 nM.

Consider `Nc1cccc(S(=O)(=O)N(C[C@@H](O)[C@H](Cc2ccccc2)NC(=O)O[C@H]2CO[C@H]3OCC[C@H]32)OC2CCOCC2)c1` [Compound 147, (3R,3aS,6aR)hexahydrofuro[2,3-b]furan-3-yl 3-[[(3-aminophenyl)sulfonyl](tetrahydro-2H-pyran-4-yloxy)amino]-1-benzyl-2-hydroxypropylcarbamate], for which the Ki on HIV-1 protease (setting [2]) was < 1 nM. Further, the IC50 in the assay with HIV-1 (strain IIIB) (setting [3]) is ≤ 100 nM.

On to `O=C(N[C@@H](Cc1ccccc1)[C@H](O)CN(OC1CCOCC1)S(=O)(=O)c1cccc(O)c1)O[C@H]1CO[C@H]2OCC[C@H]21` [Compound 148, (3R,3aS,6aR)hexahydrofuro[2,3-b]furan-3-yl 1-benzyl-2-hydroxy-3-[[(3-hydroxyphenyl)sulfonyl](tetrahydro-2H-pyran-4-yloxy)amino]propylcarbamate], for which the Ki on HIV-1 protease (setting [2]) is < 1 nM. In the assay on HIV-1 (strain IIIB) (setting [1]), the IC50 was ≤ 100 nM.

As to `O=C(N[C@@H](Cc1ccccc1)[C@H](O)CN(OC1CCOCC1)S(=O)(=O)c1ccc(O)cc1)O[C@H]1CO[C@H]2OCC[C@H]21` [Compound 149, (3R,3aS,6aR)hexahydrofuro[2,3-b]furan-3-yl 1-benzyl-2-hydroxy-3-[[(4-hydroxyphenyl)sulfonyl](tetrahydro-2H-pyran-4-yloxy)amino]propylcarbamate], the Ki at HIV-1 protease (setting [2]) was < 1 nM. Besides, the IC50 in the assay on HIV-1 (strain IIIB) (setting [1]) was ≤ 100 nM.

As to `O=C(N[C@@H](Cc1ccccc1)[C@H](O)CN(OC1CCOCC1)S(=O)(=O)c1ccc2c(c1)OCCO2)O[C@H]1CO[C@H]2OCC[C@H]21` [Compound 150, (3R,3aS,6aR)hexahydrofuro[2,3-b]furan-3-yl 1-benzyl-3-[(2,3-dihydro-1,4-benzodioxin-6-ylsulfonyl)(tetrahydro-2H-pyran-4-yloxy)amino]-2-hydroxypropylcarbamate], on HIV-1 protease (setting [2]), the inhibition constant Ki is < 1 nM. For the same compound, the IC50 in the assay on HIV-1 (strain IIIB) (setting [1]) is ≤ 100 nM.

Take `O=C(N[C@@H](Cc1ccccc1)[C@H](O)CN(OC1CCOCC1)S(=O)(=O)c1ccc2c(c1)OCO2)O[C@H]1CO[C@H]2OCC[C@H]21` [Compound 151, (3R,3aS,6aR)hexahydrofuro[2,3-b]furan-3-yl 3-[(1,3-benzodioxol-5-ylsulfonyl)(tetrahydro-2H-pyran-4-yloxy)amino]-1-benzyl-2-hydroxypropylcarbamate]: on HIV-1 protease (setting [2]), the Ki is < 1 nM. In addition, in the assay with HIV-1 (strain IIIB) (setting [3]), the IC50 is ≤ 100 nM.

In the case of `Nc1ccc(S(=O)(=O)N(C[C@@H](O)[C@H](Cc2ccccc2)NC(=O)O[C@H]2CO[C@H]3OCC[C@H]32)OC2CCCCC2)cc1` [Compound 153, (3R,3aS,6aR)hexahydrofuro[2,3-b]furan-3-yl(1S,2R)-3-[[(4-aminophenyl)sulfonyl](cyclohexyloxy)amino]-1-benzyl-2-hydroxypropylcarbamate], the Ki at HIV-1 protease (setting [2]) is < 1 nM. Moreover, the IC50 in the assay with HIV-1 (strain IIIB) (setting [1]) was ≤ 100 nM.

Turning to `Nc1cccc(S(=O)(=O)N(C[C@@H](O)[C@H](Cc2ccccc2)NC(=O)O[C@H]2CO[C@H]3OCC[C@H]32)OC2CCCCC2)c1` [Compound 154, (3R,3aS,6aR)hexahydrofuro[2,3-b]furan-3-yl(1S,2R)-3-[[(3-aminophenyl)sulfonyl](cyclohexyloxy)amino]-1-benzyl-2-hydroxypropylcarbamate], the Ki on HIV-1 protease (setting [2]) was < 1 nM. Further, the IC50 in the assay on HIV-1 (strain IIIB) (setting [1]) is ≤ 100 nM.

As to `O=C(N[C@@H](Cc1ccccc1)[C@H](O)CN(OC1CCCCC1)S(=O)(=O)c1ccc2c(c1)OCO2)O[C@H]1CO[C@H]2OCC[C@H]21` [Compound 155, (3R,3aS,6aR)hexahydrofuro[2,3-b]furan-3-yl(1S,2R)-3-[(1,3-benzodioxol-5-ylsulfonyl)(cyclohexyloxy)amino]-1-benzyl-2-hydroxypropylcarbamate], the Ki on HIV-1 protease (setting [2]) was < 1 nM. Besides, the half-inhibitory concentration (IC50) in the assay with HIV-1 (strain IIIB) (setting [1]) is ≤ 100 nM.

Consider `O=C(N[C@@H](Cc1ccccc1)[C@H](O)CN(OC1CCCCC1)S(=O)(=O)c1ccc2c(c1)OCCO2)O[C@H]1CO[C@H]2OCC[C@H]21` [Compound 156, (3R,3aS,6aR)hexahydrofuro[2,3-b]furan-3-yl(1S,2R)-1-benzyl-3-[(cyclohexyloxy)(2,3-dihydro-1,4-benzodioxin-6-ylsulfonyl)amino]-2-hydroxypropylcarbamate], for which, at HIV-1 protease (setting [2]), the inhibitory constant (Ki) is < 1 nM. Besides, the IC50 in the assay on HIV-1 (strain IIIB) (setting [1]) is ≤ 100 nM.

For the compound `O=C(N[C@@H](Cc1ccccc1)[C@H](O)CN(OC1CCCCC1)S(=O)(=O)c1cccc(O)c1)O[C@H]1CO[C@H]2OCC[C@H]21` [Example 159, (3R,3aS,6aR)hexahydrofuro[2,3-b]furan-3-yl(1S,2R)-1-benzyl-3-{(cyclohexyloxy)[(3-hydroxyphenyl)sulfonyl]amino}-2-hydroxypropylcarbamate], the Ki at HIV-1 protease (setting [2]) is < 1 nM. Moreover, the IC50 in the assay with HIV-1 (strain IIIB) (setting [1]) is ≤ 100 nM.

For `O=C(N[C@@H](Cc1ccccc1)[C@H](O)CN(OC1CCCCC1)S(=O)(=O)c1ccc(O)cc1)O[C@H]1CO[C@H]2OCC[C@H]21` [Example 160, (3R,3aS,6aR)hexahydrofuro[2,3-b]furan-3-yl(1S,2R)-1-benzyl-3-{(cyclohexyloxy)[(4-hydroxyphenyl)sulfonyl]amino}-2-hydroxypropylcarbamate], on HIV-1 protease (setting [2]), the Ki is < 1 nM. The IC50 in the assay on HIV-1 (strain IIIB) (setting [1]) is ≤ 100 nM.

On to `CCC(CC)ON(C[C@@H](O)[C@H](Cc1ccccc1)NC(=O)OC(C)(C)C)S(=O)(=O)c1ccc(OC)cc1` [Example 161, tert-butyl(1S,2R)-1-benzyl-3-{(1-ethylpropoxy)[(4-methoxyphenyl)sulfonyl]amino}-2-hydroxypropylcarbamate], for which the Ki on HIV-1 protease (setting [2]) lay in the range of 1 to 10 nM. The IC50 in the assay on HIV-1 (strain IIIB) (setting [1]) was > 1000 nM.

For `CCC(CC)ON(C[C@@H](O)[C@H](Cc1ccccc1)NC(=O)O[C@H]1CO[C@H]2OCC[C@H]21)S(=O)(=O)c1ccc2c(c1)OCO2` [Example 162, (3R,3aS,6aR)hexahydrofuro[2,3-b]furan-3-yl(1S,2R)-3-[(1,3-benzodioxol-5-ylsulfonyl)(1-ethylpropoxy)amino]-1-benzyl-2-hydroxypropylcarbamate], the Ki at HIV-1 protease (setting [2]) was < 1 nM. Also, the IC50 in the assay on HIV-1 (strain IIIB) (setting [1]) was ≤ 100 nM.

As for `CCC(CC)ON(C[C@@H](O)[C@H](Cc1ccccc1)NC(=O)O[C@H]1CO[C@H]2OCC[C@H]21)S(=O)(=O)c1ccc(N)cc1` [Example 163, (3R,3aS,6aR)hexahydrofuro[2,3-b]furan-3-yl(1S,2R)-3-[[(4-aminophenyl)sulfonyl](1-ethylpropoxy)amino]-1-benzyl-2-hydroxypropylcarbamate], at HIV-1 protease (setting [2]), the inhibition constant (Ki) was < 1 nM. Also, in the assay on HIV-1 (strain IIIB) (setting [1]), the IC50 is ≤ 100 nM.

`CCC(CC)ON(C[C@@H](O)[C@H](Cc1ccccc1)NC(=O)O[C@H]1CO[C@H]2OCC[C@H]21)S(=O)(=O)c1cccc(N)c1` [Example 164, (3R,3aS,6aR)hexahydrofuro[2,3-b]furan-3-yl(1S,2R)-3-[[(3-aminophenyl)sulfonyl](1-ethylpropoxy)amino]-1-benzyl-2-hydroxypropylcarbamate]: at HIV-1 protease (setting [2]), the Ki was < 1 nM. Besides, the IC50 with HIV-1 (strain IIIB) (setting [1]) is ≤ 100 nM.

On to `CCC(CC)ON(C[C@@H](O)[C@H](Cc1ccccc1)NC(=O)O[C@H]1CO[C@H]2OCC[C@H]21)S(=O)(=O)c1ccc(O)cc1` [Example 166, (3R,3aS,6aR)hexahydrofuro[2,3-b]furan-3-yl(1S,2R)-1-benzyl-3-{(1-ethylpropoxy)[(4-hydroxyphenyl)sulfonyl]amino}-2-hydroxypropylcarbamate], for which, at HIV-1 protease (setting [2]), the Ki is < 1 nM. For the same compound, the IC50 with HIV-1 (strain IIIB) (setting [1]) is ≤ 100 nM.

Turning to `CNC(=O)CNC(=O)NCCNc1cccc(S(=O)(=O)N(CC(O)C(Cc2ccccc2)NC(=O)OC2COC3OCCC23)OC2CCCC2)c1` [Example 167, (3R,3aS,6aR)hexahydrofuro[2,3-b]furan-3-yl N-[(1S,2R)-1-benzyl-3-((cyclopentyloxy)[3-([(2-[methylamino]-2-oxoethylamino)carbonylamino]ethylamino)phenyl]sulfonylamino)-2-hydroxypropyl]carbamate and (3S,3aR,6aS)hexahydrofuro[2,3-b]furan-3-yl N-[(1S,2R)-1-benzyl-3-((cyclopentyloxy)[3-([2-[methylamino)-2-oxoethylamino)carbonylamino]ethylamino)phenyl]sulfonylamino)-2-hydroxypropyl]carbamate], the Ki on HIV-1 protease (setting [2]) is < 1 nM. Further, in the assay on HIV-1 (strain IIIB) (setting [1]), the concentration for half-maximal inhibition (IC50) lay within 100 to 500 nM.

In the case of `Nc1ccc(S(=O)(=O)N(CC(O)C(Cc2ccccc2)NC(=O)OC2COC3OCCC23)OC2CCCC2)cc1` [Example 171, (3R,3aS,6aR)hexahydrofuro[2,3-b]furan-3-yl N-(1S,2R)-3-[[(4-aminophenyl)sulfonyl](cyclopentyloxy)amino]-1-benzyl-2-hydroxypropyl carbamate], the Ki at HIV-1 protease (setting [2]) is < 1 nM. In the assay with HIV-1 (strain IIIB) (setting [1]), the concentration for half-maximal inhibition (IC50) was ≤ 100 nM.

For `NC(=O)c1cccc(S(=O)(=O)N(C[C@@H](O)[C@H](Cc2ccccc2)NC(=O)O[C@H]2CO[C@H]3OCC[C@H]32)OC2CCCC2)c1` [Example 173, (3R,3aS,6aR)hexahydrofuro[2,3-b]furan-3-yl N-(1S,2R)-3[[(3-carbamoylphenyl)sulfonyl](cyclopentyloxy)amino]-1-benzyl-2-hydroxypropyl carbamate], at HIV-1 protease (setting [2]), the inhibition constant (Ki) is < 1 nM. In addition, the IC50 in the assay on HIV-1 (strain IIIB) (setting [1]) is ≤ 100 nM.
